In patent US20240140953A1, “INHIBITORS OF MENIN-MLL INTERACTION” (BIOMEA FUSION, INC., priority 2018, published 2024):
Read-outs that look alike come from different tables or passages of the source.

Experiments:
MV-4-11 = assay: Long term proliferation assay (Table 3A), MV-4-11; format: cell-based; conditions: Homo sapiens, MV4-11
Protocol: (§1) Example 5b: IC50 determination of compounds of invention in various cell lines (Long Term Proliferation Assay)
(§2) The following 5 cell lines are used or can be used for the long term proliferation assay.
(§3) Compounds of invention are tested in the 5 suspension lines by 14-day long-term proliferation assay.
(§4) The compound is tested in 10-pt dose titration (client will determine the starting concentration and the dilution scheme) and the final DMSO concentration is kept at 0.2%.
(§5) Vehicle and media control are also included. All treatments are done in triplicate.
(§6) 3 plates are used for each cell line and 15 plates are used for the 5 cell lines.
(§7) • 1) On Day 0, in a flat bottom 96-well plate, add 100 μL of cells per well at the densities optimized. • 2) Prepare compounds in DMSO at 500× final concentration. Dilute the compounds with DMSO at the dilution. • 3) Dilute the compounds in media at 3×final concentration. Add 50 μL of compound or DMSO at 3× final concentration to each well. Final volume in each well is 150 μL, and final concentration of DMSO is 0.2%. Also include 3 untreated control wells, by adding 50 μL of media alone. 4) Incubate plates for 96 hours. • 5) Count the cells using the Acumen, with capabilities for 96-well plates. Pipette cells up and down to mix in each well, and add desired volume of cells to a new flat bottom poly-D-lysine 96-well plate. Add Calcein AM at 1 μM final concentration. Let cells sit at RT for 10 mins followed by a quick spin to get cells settled on the bottom of the wells. Incubate the plate for additional 40 mins in the incubator. Take out the plate and read by Acumen. Calculate the cell numbers taken into account the dilution factors. • 6) Split the master plate. To do this take the total viable cell count calculated using step 5). Take the average of the replicates for each dose in order to be used in splitting the cells. • 7) Use a 96 well V-bottom plate to spin down the cells to remove old media and compound to split the cells. Based on the split ratio place the proper amount of media and cells into the V-bottom plate, and spin the plate at 1100 rpm for 5 minutes. • 8) Following the spin remove the media, careful not to disturb the cellpellet. • 9) Re-suspend pellet in 100 μL fresh media, and add to a new 96-well flat bottom plate. • 10) Add fresh compound, in the same manner as Step 3). • 11) Incubate plates for 72 hours. Repeat steps 5)-10) on Day 7. • 12) Incubate plates for 96 hours. Repeat Step 5)-10) on Day 11. • 13) Incubate 72 hours and repeat step 5) to take a final count. • 14) Data Analysis
(§8) To calculate growth for days 4, 7, 11, and 14: • Calculate the split factor for day 4 to 7, day 7 to 11, and day 11-14.

MOLM-13 = assay: Long term proliferation assay (Table 3A), MOLM-13; format: cell-based; conditions: Homo sapiens
Protocol: as §1, §2, §3, §4, §5, §6, §7, §8

HL-60 [1] = assay: Proliferation study, CellTiterGlo, 4 days (Example 102), HL-60; format: cell-based; conditions: HL-60, 4 days treatment
Text: (§9) The objective of the study was to evaluate the ability of representative compounds of the present invention, inhibitors of Menin/MLL interaction to inhibit cell proliferation. The proliferation inhibitory effect was investigated in two human MLL-leukemia cells selected on the bases of MLL fusion protein and listed in Table 102. HL-60 cell line was used as negative control.
(§10) ATP is present in all metabolically active cells and is considered as a marker for cell viability and proliferation. The metabolic cell activity was determined using the CellTiter-Glo kit from Promega, an ATP monitoring system based on the production of luminescence by the reaction of ATP with added UltraGlo® recombinant luciferase (Kawano et al., 2016), according to the supplier's experimental recommendations.
(§11) The described assay evaluates the ability of 4 representative compounds to inhibit the cell proliferation in the human MLL-leukemia cells plus a negative control cell line.
(§12) The assay provides potency values (IC50) for each test compound at a single time point Day 4 (T4).
(§13) Seven concentrations of the compounds (2.00E-05-6.67E-06-2.22E-06-7.41E-07-2.47E-07-8.23E-08-2.74E-08M), were assessed in duplicate in an individual test occasion in all the cell lines. MI-503 (Borkin et al., 2015) was used as reference compound and was tested at the same concentrations as the NCEs. 100% of proliferation is represented by the untreated cells (0.2% DMSO). The cell growth was monitored up to 4 days in culture.
(§14) MV4-11, MOLM-13 and HL-60 cells (see Table 2) were maintained in RPMI-1640 medium (Invitrogen, Cat. n. 618700, Batch n. 1965930) supplemented with 10% of Heat Inactivated FBS (Invitrogen, Cat n. 10500, Batch n. 08Q8078K) and 1% Pen-Strep (Invitrogen, Cat. N. 15140, Batch n. 1910859) and cultured at 37° C. in a humidified incubator with 5% CO2. All the cell lines grow in suspension and the cell density was maintained in a range of 2×10^5-1×10^6 viable cells/ml. Cells were pelleted at 130 g×5 min and conditioned medium was used to dilute the cell suspension.
(§15) Test items were dissolved in glass vials at 10 mM in DMSO with purity ≥99.9% (Sigma, D8418, batch n. SHBH4245V) and stored at −20° C. in 1.5 mL Eppendorf tubes.
(§16) Serial dilutions 1 to 3 in DMSO 100% were prepared starting from a 10 mM stock solutions to generate 7 points concentration response curve (CRC).
(§17) For each plate to test, one 0.4 μL copy plate and four 0.3 μL copy plates were then stamped into 96-well plates not treated for cell adhesion (Sarstedt—cat.no. 82.1581.001) by acoustic liquid Handling, Echo, at a concentration which was 500 fold the final assay concentration. Stamped plates were stored at −20° C. The final concentrations for the reference compound, MI-503, and the test items were: 2.00E-05, 6.67E-06, 2.22E-06, 7.41E-07, 2.47E-07, 8.23E-08 and 2.74E-08 M.
(§18) Cells were plated in 96-well flat bottom microtiter plates at cell density of 15,000 cells/ml for HL-60, 1000 cells/ml for MOLM-13 and 10,000 cell/ml for MV4-11. Cells were treated with 0.2% DMSO (Sigma, D8418, batch n. SHBH4245V) or serial dilutions of compounds (0.027 μM-20 μM) in DMSO (0.2% final concentration). Cells were incubated in a 5% CO2 incubator at 37° C. for 4 days. A CellTiterGlo viability assay (Promega) was employed. Luminescence was read by using VictorV (Perkin Elmer) multilabel plate reader using the standard protocol for luminescence in 96 well plate. The experiment was performed in duplicate.
(§19) Data were expressed as % of inhibition compared to the 0.2% DMSO negative control, and was calculated as follows: […]
(§20) CRCs were analysed by GraphPad and IC50 values were calculated by non-linear regression using 4 parameter-logistic equation. IC50 (μM) values were reported in the final data table. The curve fittings were performed leaving free all the parameters. Any constrain were reported in the results table.

MV4-11 (MLL-AF4) [2] = assay: Proliferation study, CellTiterGlo, 4 days (Example 102), MV4-11; format: cell-based, human; conditions: MV4-11, 4 days treatment
Text: as §9, §10, §11, §12, §13, §14, §15, §16, §17, §18, §19, §20

MOLM-13 (MLL-AF9) [3] = assay: Proliferation study, CellTiterGlo, 4 days (Example 102), MOLM-13; format: cell-based, human; conditions: MOLM-13, 4 days treatment
Text: as §9, §10, §11, §12, §13, §14, §15, §16, §17, §18, §19, §20

HL-60 [4] = assay: LTP assay, CellTiterGlo, T4-T14 (Example 103), HL-60; format: cell-based; conditions: HL-60, LTP assay
Protocol: (§21) The day of the experiment (T0) all the cell line suspensions were counted by Cell Viability Analyser, Vi-CELL and properly diluted with fresh medium to obtain the cell density reported in the Test System paragraph.
(§22) Cells were tested after 4 passages after thawing.
(§23) 200 μL/well and 150 μL/well of cell suspension were added into the 0.4 μL/well and 0.3 μL/well compound plates, respectively. • Cell plate containing 200 μL/well suspension was incubated at 37° C. in a humidified incubator with 5% CO2. • From each well of the 150 μL/well cell assay plate, 100 μL were harvested and transferred into a 96-well Optiplate (Perkin Elmer, Cat. n. 6005290) and cell viability was measured as described in 4.3 paragraphs (T0).
(§24) After four days in culture (T4) 150 μL/well of fresh medium were added into a new 0.3 μL/well copy compound plate. • From each well of the 200 μL/well cell assay plate: • 100 μL were sampled for the cell viability measurement as described in 4.3 paragraphs (T4). • 50 μL were harvested and added to the 150 μL/well compound plate prepared as described in the first point to dilute 1:4 the cell suspension. • The cell assay plate diluted and containing 200 μL/well suspension were incubated at 37° C. in a humidified incubator with 5% Co2.
(§25) At T7-T11-T14 it was proceeded as described in T4, with the exception that no further cell dilution was carried out at T14.
(§26) Plates containing the samples to be tested were equilibrated at room temperature for approximately 30 min and then 30 μL/well of the Promega CellTiterGlo® reagent were added.
(§27) Contents will be mixed for 5 min on an orbital shaker to induce cell lysis and then incubated at room temperature for an additional 10 min to stabilize the luminescent signal.
(§28) Luminescence was read by using VictorV (Perkin Elmer) multilabel plate reader using the standard protocol for luminescence in 96 well plate.
as §19
(§29) CRCs were analysed by GraphPad and IC50 values were calculated by non-linear regression using 4 parameter-logistic equation. IC50 (μM) values were reported in the final data table.
(§30) The curve fittings were performed leaving free all the parameters. Any constrain were reported in the results table.

MOLM-13 (MLL-AF9) [5] = assay: LTP assay, CellTiterGlo, T4-T14 (Example 103), MOLM-13; format: cell-based, human; conditions: MOLM-13, LTP assay
Protocol: as §21, §22, §23, §24, §25, §26, §27, §28, §19, §29, §30

MV4-11 (MLL-AF4) [6] = assay: LTP assay, CellTiterGlo, T4-T14 (Example 103), MV4-11; format: cell-based, human; conditions: MV4-11, LTP assay
Protocol: as §21, §22, §23, §24, §25, §26, §27, §28, §19, §29, §30

RS4-11 (MLL-AF4) = assay: LTP assay, CellTiterGlo, T4-T14 (Example 103), RS4-11; format: cell-based; conditions: RS4;11, LTP assay
Protocol: as §21, §22, §23, §24, §25, §26, §27, §28, §19, §29, §30

[7] = MV-4-11, Day 4, read-out: MV-4-11 Day 4 IC50
[8] = MV-4-11, Day 11, read-out: MV-4-11 Day 11 IC50
[9] = 96 h, MOLM-13, Day 4, read-out: MOLM-13 Day 4 IC50
[10] = 264 h, MOLM-13, Day 11, read-out: MOLM-13 Day 11 IC50

| SMILES | IC50 (MV-4-11; [7]) | IC50 (MV-4-11; [8]) | IC50 (MOLM-13; [9]) | IC50 (MOLM-13; [10]) | HL-60 pIC50 (HL-60 [1]; CellTiterGlo) | IC50 (HL-60 [1]; CellTiterGlo, read-out: HL-60 IC50) | HL-60 % max (HL-60 [1]; maximal inhibition) | MV4-11 (MLL-AF4) pIC50 (MV4-11 (MLL-AF4) [2]; CellTiterGlo) | IC50 (MV4-11 (MLL-AF4) [2]; CellTiterGlo, read-out: MV4-11 (MLL-AF4) IC50) | MV4-11 (MLL-AF4) % max (MV4-11 (MLL-AF4) [2]; maximal inhibition) | MOLM-13 (MLL-AF9) pIC50 (MOLM-13 (MLL-AF9) [3]; CellTiterGlo) | IC50 (MOLM-13 (MLL-AF9) [3]; CellTiterGlo, read-out: MOLM-13 (MLL-AF9) IC50) | MOLM-13 (MLL-AF9) % max (MOLM-13 (MLL-AF9) [3]; maximal inhibition) | inhibition of cell viability (in words) (HL-60 [4]) | inhibition of cell viability (in words) (MOLM-13 (MLL-AF9) [5]) | inhibition of cell viability (in words) (MV4-11 (MLL-AF4) [6]) | inhibition of cell viability (in words) (RS4-11 (MLL-AF4)) |
| --- | --- | --- | --- | --- | --- | --- | --- | --- | --- | --- | --- | --- | --- | --- | --- | --- | --- |
| CC(C)c1cc(-c2cc3c(N4CCOCC4)ncnc3[nH]2)ccc1NC(=O)Nc1cc(-c2cccnc2)no1 [Compound 7, 1-{4-[4-(morpholin-4-yl)-7H-pyrrolo[2,3-d]pyrimidin-6-yl]-2-(propan-2-yl)phenyl}-3-[3-(pyridin-3-yl)-1,2-oxazol-5-yl]urea] | 891 nM | 631 nM | 933 nM | 871 nM | – | – | – | – | – | – | – | – | – | – | – | – | – |
| O=C(Cc1cc(-c2cccnc2)no1)Nc1ccc(-c2cc3c(N4CCOCC4)ncnc3[nH]2)cc1 [Compound 5, N-{4-[4-(morpholin-4-yl)-7H-pyrrolo[2,3-d]pyrimidin-6-yl]phenyl}-2-[3-(pyridin-3-yl)-1,2-oxazol-5-yl]acetamide] | 129 nM | 66 nM | 115 nM | 32 nM | – | – | – | – | – | – | – | – | – | – | – | – | – |
| CC(C)c1c(-c2cccnc2)noc1NC(=O)Nc1ccc(-c2cc3c(N4CCOCC4)ncnc3[nH]2)cc1 [Compound 6, 1-{4-[4-(morpholin-4-yl)-7H-pyrrolo[2,3-d]pyrimidin-6-yl]phenyl}-3-[4-(propan-2-yl)-3-(pyridin-3-yl)-1,2-oxazol-5-yl]urea] | 229 nM | 74 nM | 178 nM | 50 nM | – | – | – | – | – | – | – | – | – | – | – | – | – |
| Cc1c(CN2CCC(Nc3ncnc4sc(CC(F)(F)F)cc34)CC2)ccc2c1cc(C#N)n2Cc1cn[nH]c1 [MI-503, reference compound] | – | – | – | – | 6.38 | 420 nM | 103% | 6.73 | 190 nM | 100% | 6.63 | 230 nM | 98% | fully inhibited cell viability | fully inhibited cell viability | fully inhibited cell viability | fully inhibited cell viability |
